Assay results from the supplement of paper PMC10307832.

How the values were obtained:
Experiment in all cases: relative viability (nuclei count vs DMSO), 5 days (fraction); higher = more cells survive
Sulindac + OSI-027 = compound: CC1=C(CC(=O)O)c2cc(F)ccc2/C1=C\c1ccc([S+](C)[O-])cc1 [Sulindac] + COc1cccc2cc(-c3nc([C@H]4CC[C@H](C(=O)O)CC4)n4ncnc(N)c34)[nH]c12 [OSI-027] (partner 0.5 µM)
Method in brief: (§1)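 For relative viability, nuclei counts in treated wells were divided by those in vehicle wells. Lung cancer cell lines had been pin-tool dosed in 1536-well plates the day after seeding and cultured for 5 days, then fixed and stained in one step (final 0.05% Triton X-100, 1% formaldehyde, 1 ug/ml Hoechst) and imaged at 4×. Doses were one drug alone or a fixed anchor-drug dose plus five library-drug doses (not always all listed) in √10 steps, and values are duplicate-plate medians.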

Sulindac + Decitabine = compound: CC1=C(CC(=O)O)c2cc(F)ccc2/C1=C\c1ccc([S+](C)[O-])cc1 [Sulindac] + Nc1ncn([C@H]2C[C@H](O)[C@@H](CO)O2)c(=O)n1 [Decitabine] (partner 2 µM)
Method in brief: as §1

[1] = compound: CN[C@@H]1C[C@H]2O[C@@](C)([C@@H]1OC)n1c3ccccc3c3c4c(c5c6ccccc6n2c5c31)C(=O)NC4 [Staurosporine] + CC1(C)CCC(c2ccc(Cl)cc2)=C(CN2CCN(c3ccc(C(=O)NS(=O)(=O)c4ccc(N[C@H](CCN5CCOCC5)CSc5ccccc5)c(S(=O)(=O)C(F)(F)F)c4)cc3)CC2)C1 [Navitoclax] (partner 0.5 µM)
Method in brief: as §1

Staurosporine + AZD7762 = compound: CN[C@@H]1C[C@H]2O[C@@](C)([C@@H]1OC)n1c3ccccc3c3c4c(c5c6ccccc6n2c5c31)C(=O)NC4 [Staurosporine] + NC(=O)Nc1cc(-c2cccc(F)c2)sc1C(=O)N[C@H]1CCCNC1 [AZD7762] (partner 0.2 µM)
Method in brief: as §1

| Cell Line | relative viability (Sulindac + OSI-027; first compound 0.08 µM) | relative viability (Sulindac + OSI-027; first compound 0.253 µM) | relative viability (Sulindac + OSI-027; first compound 2.53 µM) | relative viability (Sulindac + OSI-027; first compound 8 µM) | relative viability (Sulindac + Decitabine; first compound 0.08 µM) | relative viability (Sulindac + Decitabine; first compound 0.253 µM) | relative viability (Sulindac + Decitabine; first compound 0.8 µM) | relative viability (Sulindac + Decitabine; first compound 2.53 µM) | relative viability (Sulindac + Decitabine; first compound 8 µM) | relative viability ([1]; first compound 0.005 µM) | relative viability ([1]; first compound 0.01581 µM) | relative viability ([1]; first compound 0.05 µM) | relative viability ([1]; first compound 0.1581 µM) | relative viability ([1]; first compound 0.5 µM) | relative viability (Staurosporine + AZD7762; first compound 0.005 µM) | relative viability (Staurosporine + AZD7762; first compound 0.01581 µM) | relative viability (Staurosporine + AZD7762; first compound 0.05 µM) | relative viability (Staurosporine + AZD7762; first compound 0.1581 µM) | relative viability (Staurosporine + AZD7762; first compound 0.5 µM) | relative viability (Sulindac + OSI-027; first compound 0.8 µM) |
| --- | --- | --- | --- | --- | --- | --- | --- | --- | --- | --- | --- | --- | --- | --- | --- | --- | --- | --- | --- | --- |
| NCI-H1355 | 0.403 | 0.454 | 0.38 | 0.393 | 0.325 | 0.343 | 0.366 | 0.338 | 0.366 | 0.975 | 0.549 | 0.249 | 0.28 | 0.217 | 0.713 | 0.294 | 0.237 | 0.214 | 0.148 |  |
| EKVX | 0.674 | 0.713 | 0.598 | 0.684 | 0.312 | 0.316 | 0.305 | 0.341 | 0.352 | 0.306 | 0.222 | 0.254 | 0.168 | 0.112 | 0.239 | 0.119 | 0.286 | 0.321 |  | 0.641 |
| NCI-H520 | 0.266 | 0.266 | 0.232 | 0.307 | 0.516 | 0.568 | 0.467 | 0.431 | 0.505 | 1.15 | 0.935 | 0.408 | 0.204 | 0.13 |  |  |  |  |  |  |
| NCI-H1993 | 0.513 | 0.554 | 0.542 | 0.581 | 0.558 | 0.298 | 0.454 | 0.61 | 0.627 | 1.04 | 0.645 | 0.54 | 0.44 | 0.435 | 0.676 | 0.39 | 0.407 | 0.331 | 0.296 | 0.495 |
| HCC-78 | 0.385 | 0.395 | 0.329 | 0.381 | 0.652 | 0.672 | 0.597 | 0.653 | 0.648 | 0.711 | 0.563 | 0.553 | 0.358 | 0.206 | 0.674 | 0.463 | 0.438 | 0.375 | 0.326 | 0.399 |
| NCI-H2087 | 0.67 | 0.595 | 0.46 | 0.567 | 0.186 | 0.324 | 0.254 | 0.246 | 0.323 | 0.744 | 0.679 | 0.374 | 0.133 | 0.103 | 1.3 |  | 0.681 | 0.207 | 0.0787 |  |
| H3255 | 0.523 | 0.622 | 0.576 | 0.593 | 0.577 | 0.662 | 0.503 | 0.566 | 0.615 | 0.172 | 0.102 | 0.112 | 0.0846 | 0.0541 | 0.658 | 0.474 | 0.324 | 0.204 | 0.126 | 0.474 |
| NCI-H2126 | 0.578 | 0.698 | 0.741 | 0.771 | 0.623 | 0.627 | 0.543 | 0.553 | 0.549 | 0.915 | 0.624 | 0.461 | 0.433 | 0.339 | 0.914 | 0.622 | 0.673 | 0.268 | 0.27 | 0.674 |
| LC-2-ad | 0.763 | 0.986 | 0.701 | 0.776 | 0.954 | 0.945 | 0.57 | 0.823 | 0.9 | 0.473 | 0.202 | 0.172 | 0.0798 | 0.0689 |  | 0.276 | 0.172 | 0.12 | 0.0995 | 0.686 |
| SK-LU-1 | 0.305 | 0.343 | 0.316 | 0.351 | 0.691 | 0.642 | 0.53 | 0.647 | 0.673 | 0.323 | 0.115 | 0.131 | 0.151 | 0.059 |  |  |  |  |  | 0.295 |
| EBC-1 |  |  |  |  |  |  |  |  |  | 0.252 | 0.129 | 0.118 | 0.11 | 0.094 |  |  |  |  |  |  |
| HCC-15 | 0.77 | 0.716 | 0.634 | 0.667 | 0.708 | 0.625 | 0.548 | 0.543 | 0.661 | 0.677 |  | 0.392 | 0.282 | 0.183 | 1.28 |  | 1.22 | 0.736 | 0.302 | 0.526 |
| NCI-H1563 | 0.754 | 0.784 | 0.703 | 0.784 |  |  |  |  |  |  |  |  |  |  |  |  |  |  |  | 0.762 |
| COR-L 105 | 0.653 | 0.747 | 0.635 | 0.843 | 0.648 | 0.698 | 0.621 | 0.538 | 0.769 | 0.573 | 0.275 | 0.258 | 0.272 | 0.242 |  |  |  |  |  | 0.498 |
| NCI-H647 | 0.63 | 0.947 | 0.677 | 0.683 | 0.392 | 0.51 | 0.361 | 0.442 | 0.426 | 0.728 | 0.142 | 0.291 | 0.0554 | 0.0386 | 0.296 | 0.102 | 0.121 | 0.0587 | 0.05 | 0.487 |
| LU99A | 0.306 | 0.289 | 0.299 | 0.306 | 1.05 | 0.806 | 0.86 | 0.782 | 1.17 | 0.876 | 0.589 | 0.359 | 0.211 | 0.128 | 0.327 | 0.135 | 0.205 | 0.153 | 0.0961 | 0.284 |
| NCI-H1703 |  |  |  |  |  |  |  |  |  | 0.293 | 0.207 | 0.143 | 0.132 | 0.0869 | 0.121 | 0.0954 | 0.107 | 0.083 | 0.118 |  |
| NCI-H2170 | 0.694 | 0.72 | 0.739 | 0.756 | 0.521 | 0.461 | 0.436 | 0.434 | 0.455 | 0.708 | 0.376 | 0.421 | 0.219 | 0.189 | 1.05 |  | 0.43 | 0.0989 | 0.15 | 0.684 |
| NCI-H2342 | 0.591 | 0.578 | 0.618 | 0.694 | 0.681 | 0.706 | 0.591 | 0.648 | 0.786 |  |  |  |  |  | 0.642 | 0.412 | 0.373 | 0.335 | 0.328 | 0.546 |
